Where two headings read alike, the source gives them in different places.
Tests used:
[1] = ref PharmaPendium, cited from earlier work
[2] = test system: hiPSC-derived neurons co-cultured with human primary astrocytes in 2D; experiment: Ca2+ transient oscillation assay (FDSS), 2D co-culture; assay type: cell-based; settings: for effect on peak number / Ca2+ neuronal oscillations, in words: 2D format; for activation at 3.7 µM / activation at 11.11 µM / activation at 33.33 µM / activation at 100 µM / activation at 0.37 µM / activation at 1.11 µM / activation at 3.33 µM / activation at 10 µM: Homo sapiens, 1 h, 60 min
Method in brief: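 hiPSC-derived excitatory neurons (CW50065, Quick-Neuron EX-SeV) co-cultured with human primary astrocytes at 4:1 (10,000:2500 cells per well). Cal-520-loaded cells in HBSS with 2 mM CaCl2 and 10 mM HEPES were pretreated with 0.04% DMSO.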

[3] = test system: hiPSC-derived neurons co-cultured with human primary astrocytes in 3D; experiment: Ca2+ transient oscillation assay (FDSS), 3D spheroids; assay type: cell-based; settings: 60 min
Method in brief: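 Fura-2 fluorescence was read twice for 20 min each: a baseline 10 min after 0.04% DMSO, and again 60 min after compound addition at nominal final concentration. The 3D co-cultures (1:1 hiPSC neurons from a donor and human astrocytes, 8000 each) matured 5 weeks in BrainPhys medium after a 1-week differentiation.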

[4] = Table 1, peak plasma concentration in men, free therapeutic Cmax
[5] = Table 2, highest plasma concentration in humans after the therapeutic dose
[6] = read-out: Area under the curve - 2D Mean
[7] = read-out: Peak amplitude - 2D Mean
[8] = read-out: Peak-to-peak interval - 2D Mean

O=C1NC(=O)C(c2ccccc2)(c2ccccc2)N1 [Phenytoin]
Free Cmax [1, 4]: 4000 to 15000 nM | Free Cmax [1, 5]: 4000 to 15000 nM | effect on peak number / Ca2+ neuronal oscillations, in words [2]: significantly reduced peak number | activation at 3.7 µM [2, 6]: 33.2% | activation at 3.7 µM ([2]; read-out: Peak Number—2D Mean): -33.5% | activation at 3.7 µM [2, 7]: 7.3% | activation at 3.7 µM ([2]; read-out: Peak width - 2D Mean): 27.2% | activation at 3.7 µM [2, 8]: 46.3% | activation at 11.11 µM [2, 6]: 27.5% | activation at 11.11 µM ([2]; read-out: Peak Number—2D Mean): -15.2% | activation at 11.11 µM [2, 7]: -0.2% | activation at 11.11 µM ([2]; read-out: Peak width - 2D Mean): 31.5% | activation at 11.11 µM [2, 8]: 22.2% | activation at 33.33 µM [2, 6]: 15.8% | activation at 33.33 µM ([2]; read-out: Peak Number—2D Mean): -51.2% | activation at 33.33 µM [2, 7]: -3% | activation at 33.33 µM ([2]; read-out: Peak width - 2D Mean): 17% | activation at 33.33 µM [2, 8]: 89% | activation at 100 µM [2, 6]: 33.3% | activation at 100 µM ([2]; read-out: Peak Number—2D Mean): -27.5% | activation at 100 µM [2, 7]: 0.2% | activation at 100 µM ([2]; read-out: Peak width - 2D Mean): 34.7% | activation at 100 µM [2, 8]: 44.5% | Area under the curve - 3D Mean ([3]; 3.7 µM): 132.1 % change from baseline | Peak Number—3D Mean ([3]; 3.7 µM): 1.4 % change from baseline | Peak amplitude - 3D Mean ([3]; 3.7 µM): 111.5 % change from baseline | Peak width - 3D Mean ([3]; 3.7 µM): 7.4 % change from baseline | Peak-to-peak interval - 3D Mean ([3]; 3.7 µM): 2.9 % change from baseline | Area under the curve - 3D Mean ([3]; 11.11 µM): 177.0 % change from baseline | Peak Number—3D Mean ([3]; 11.11 µM): −11.8 % change from baseline | Peak amplitude - 3D Mean ([3]; 11.11 µM): 110.4 % change from baseline | Peak width - 3D Mean ([3]; 11.11 µM): 29.4 % change from baseline | Peak-to-peak interval - 3D Mean ([3]; 11.11 µM): 8.2 % change from baseline | Area under the curve - 3D Mean ([3]; 33.33 µM): 199.3 % change from baseline | Peak Number—3D Mean ([3]; 33.33 µM): −14.6 % change from baseline | Peak amplitude - 3D Mean ([3]; 33.33 µM): 91.2 % change from baseline | Peak width - 3D Mean ([3]; 33.33 µM): 47.9 % change from baseline | Peak-to-peak interval - 3D Mean ([3]; 33.33 µM): 17.7 % change from baseline | Area under the curve - 3D Mean ([3]; 100 µM): 198.2 % change from baseline | Peak Number—3D Mean ([3]; 100 µM): −9.9 % change from baseline | Peak amplitude - 3D Mean ([3]; 100 µM): 88.4 % change from baseline | Peak width - 3D Mean ([3]; 100 µM): 50.5 % change from baseline | Peak-to-peak interval - 3D Mean ([3]; 100 µM): 6.6 % change from baseline

CC[C@@H]1C(=O)OC[C@@H]1Cc1cncn1C [Pilocarpine]
Free Cmax [1, 4]: 30 to 550 nM | Free Cmax [1, 5]: 30 to 550 nM | effect on peak number / Ca2+ neuronal oscillations, in words [2]: significantly increased peak number | activation at 0.37 µM [2, 6]: 26.7% | activation at 0.37 µM ([2]; read-out: Peak Number—2D Mean): 11.5% | activation at 0.37 µM [2, 7]: 9.3% | activation at 0.37 µM ([2]; read-out: Peak width - 2D Mean): 19.2% | activation at 0.37 µM [2, 8]: 1.3% | activation at 1.11 µM [2, 6]: 38.8% | activation at 1.11 µM ([2]; read-out: Peak Number—2D Mean): 8.3% | activation at 1.11 µM [2, 7]: 8% | activation at 1.11 µM ([2]; read-out: Peak width - 2D Mean): 35.7% | activation at 1.11 µM [2, 8]: 5.8% | activation at 3.33 µM [2, 6]: 26.7% | activation at 3.33 µM ([2]; read-out: Peak Number—2D Mean): 34.3% | activation at 3.33 µM [2, 7]: 5.8% | activation at 3.33 µM ([2]; read-out: Peak width - 2D Mean): 23.2% | activation at 3.33 µM [2, 8]: -9.2% | activation at 10 µM [2, 6]: 22.8% | activation at 10 µM ([2]; read-out: Peak Number—2D Mean): -19.2% | activation at 10 µM [2, 7]: 3.8% | activation at 10 µM ([2]; read-out: Peak width - 2D Mean): 23% | activation at 10 µM [2, 8]: 29.8% | Area under the curve - 3D Mean ([3]; 0.37 µM): 141.5 % change from baseline | Peak Number—3D Mean ([3]; 0.37 µM): 16.7 % change from baseline | Peak amplitude - 3D Mean ([3]; 0.37 µM): 115.6 % change from baseline | Peak width - 3D Mean ([3]; 0.37 µM): 6.3 % change from baseline | Peak-to-peak interval - 3D Mean ([3]; 0.37 µM): −10.1 % change from baseline | Area under the curve - 3D Mean ([3]; 1.11 µM): 173.5 % change from baseline | Peak Number—3D Mean ([3]; 1.11 µM): 23.9 % change from baseline | Peak amplitude - 3D Mean ([3]; 1.11 µM): 145.8 % change from baseline | Peak width - 3D Mean ([3]; 1.11 µM): 6.7 % change from baseline | Peak-to-peak interval - 3D Mean ([3]; 1.11 µM): −10.0 % change from baseline | Area under the curve - 3D Mean ([3]; 3.33 µM): 168.7 % change from baseline | Peak Number—3D Mean ([3]; 3.33 µM): 12.9 % change from baseline | Peak amplitude - 3D Mean ([3]; 3.33 µM): 135.3 % change from baseline | Peak width - 3D Mean ([3]; 3.33 µM): 10.2 % change from baseline | Peak-to-peak interval - 3D Mean ([3]; 3.33 µM): −3.3 % change from baseline | Area under the curve - 3D Mean ([3]; 10 µM): 145.2 % change from baseline | Peak Number—3D Mean ([3]; 10 µM): 23.1 % change from baseline | Peak amplitude - 3D Mean ([3]; 10 µM): 122.5 % change from baseline | Peak width - 3D Mean ([3]; 10 µM): 7.0 % change from baseline | Peak-to-peak interval - 3D Mean ([3]; 10 µM): −12.6 % change from baseline

Reference: PMC10046961, “High-Throughput Screening Assay for Detecting Drug-Induced Changes in Synchronized Neuronal Oscillations and Potential Seizure Risk Based on Ca^2+ Fluorescence Measurements in Human Induced Pluripotent Stem Cell (hiPSC)-Derived Neuronal 2D and 3D Cultures” (Cells, 2023)
